The NIST ThermoML archive (doi:10.1016/j.fluid.2017.12.037)

Assay: xn = mol fraction of the nth substance listed
Settings: Gas, Buoyancy - hydrostatic balance with magnetic suspension - one sinker

C=C(F)C(F)(F)F [2,3,3,3-tetrafluoro-1-propene] + FCF
Settings	mass density [kg/m3]
327.55 K, 734 kPa, x1 = 0.61	26.847
328.33 K, 223 kPa, x1 = 0.062	4.64
328.34 K, 637 kPa, x1 = 0.062	13.854
328.34 K, 945 kPa, x1 = 0.062	21.307
328.34 K, 1335 kPa, x1 = 0.062	31.333
328.34 K, 1696 kPa, x1 = 0.062	41.656
328.34 K, 2027 kPa, x1 = 0.062	52.145
328.43 K, 227 kPa, x1 = 0.202	5.515
328.43 K, 367 kPa, x1 = 0.202	9.049
328.43 K, 626 kPa, x1 = 0.202	15.83
328.43 K, 849 kPa, x1 = 0.202	22.032
328.43 K, 1140 kPa, x1 = 0.202	30.631
328.43 K, 1427 kPa, x1 = 0.202	39.78
328.43 K, 1696 kPa, x1 = 0.202	49.141
328.58 K, 1144 kPa, x1 = 0.366	36.066
328.58 K, 1280 kPa, x1 = 0.366	41.182
328.6 K, 618 kPa, x1 = 0.366	18.221
328.6 K, 894 kPa, x1 = 0.366	27.268
328.61 K, 203 kPa, x1 = 0.366	5.679
328.61 K, 380 kPa, x1 = 0.366	10.866
337.94 K, 261 kPa, x1 = 0.062	5.321
337.94 K, 1368 kPa, x1 = 0.062	30.983
337.95 K, 1030 kPa, x1 = 0.062	22.524
337.95 K, 1871 kPa, x1 = 0.062	44.844
337.95 K, 2216 kPa, x1 = 0.062	54.98
338.06 K, 1097 kPa, x1 = 0.202	27.951
338.06 K, 1440 kPa, x1 = 0.202	38.107
338.06 K, 1722 kPa, x1 = 0.202	47.144
338.06 K, 2012 kPa, x1 = 0.202	57.214
338.07 K, 229 kPa, x1 = 0.202	5.349
338.07 K, 435 kPa, x1 = 0.202	10.38
338.07 K, 663 kPa, x1 = 0.202	16.152
338.07 K, 900 kPa, x1 = 0.202	22.468
338.13 K, 157 kPa, x1 = 0.61	5.11
338.13 K, 347 kPa, x1 = 0.61	11.583
338.13 K, 545 kPa, x1 = 0.61	18.632
338.14 K, 742 kPa, x1 = 0.61	26.034
338.14 K, 949 kPa, x1 = 0.61	34.303
338.15 K, 1176 kPa, x1 = 0.61	43.906
338.15 K, 1363 kPa, x1 = 0.61	52.402
338.27 K, 391 kPa, x1 = 0.366	10.828
338.27 K, 1611 kPa, x1 = 0.366	51.607
338.28 K, 203 kPa, x1 = 0.366	5.523
338.28 K, 605 kPa, x1 = 0.366	17.163
338.28 K, 888 kPa, x1 = 0.366	25.992
338.28 K, 1124 kPa, x1 = 0.366	33.805
338.28 K, 1339 kPa, x1 = 0.366	41.354
346.7 K, 514 kPa, x1 = 0.202	11.999
346.7 K, 754 kPa, x1 = 0.202	17.999
346.7 K, 1075 kPa, x1 = 0.202	26.432
346.71 K, 102 kPa, x1 = 0.202	2.301
346.71 K, 314 kPa, x1 = 0.202	7.219
346.71 K, 1395 kPa, x1 = 0.202	35.395
346.71 K, 1836 kPa, x1 = 0.202	48.831
346.71 K, 2339 kPa, x1 = 0.202	66.017
346.72 K, 2053 kPa, x1 = 0.202	55.971
347.61 K, 2249 kPa, x1 = 0.062	52.666
347.62 K, 600 kPa, x1 = 0.062	12.06
347.62 K, 1099 kPa, x1 = 0.062	23.044
347.62 K, 1445 kPa, x1 = 0.062	31.254
347.62 K, 2663 kPa, x1 = 0.062	65.472
347.8 K, 256 kPa, x1 = 0.61	8.159
347.81 K, 464 kPa, x1 = 0.61	15.105
347.81 K, 667 kPa, x1 = 0.61	22.236
347.81 K, 880 kPa, x1 = 0.61	30.083
347.81 K, 1108 kPa, x1 = 0.61	38.968
347.81 K, 1320 kPa, x1 = 0.61	47.76
347.81 K, 1481 kPa, x1 = 0.61	54.813
347.81 K, 1715 kPa, x1 = 0.61	65.61
347.93 K, 143 kPa, x1 = 0.366	3.726
347.93 K, 390 kPa, x1 = 0.366	10.422
347.93 K, 675 kPa, x1 = 0.366	18.538
347.93 K, 897 kPa, x1 = 0.366	25.186
347.93 K, 1198 kPa, x1 = 0.366	34.699
347.93 K, 1496 kPa, x1 = 0.366	44.776
347.93 K, 1753 kPa, x1 = 0.366	54.093
347.94 K, 2000 kPa, x1 = 0.366	63.729
